The source of these data is patent US20240293507A1, “Methods for Enhancing Immune Checkpoint Inhibitor Therapy” (The University of Southern California, priority 2021, published 2024).

No end group written: not given here.

Assay [1] deals with MC38 mouse colon adenocarcinoma cells. Kind of assay: MC38 colon adenocarcinoma challenge, survival and rechallenge (FIG. 6-8). Format: in vivo, mice. The settings on record: peptide in combination with anti-PD-1 monoclonal antibody. The source says:
Enhancement was also found of the efficacy of anti-PD-1 therapy in a mouse colon cancer model by coadministration of a cyclic peptide as described herein. A typical protocol for identifying or characterizing effective analogs of naturally occurring cyclic peptides or effective naturally occurring cyclic peptides is shown in FIG. 6.
Mice were challenged with MC38 mouse colon adenocarcinoma cells and treated with peptide 1 (SEQ ID NO. 1), peptide 2 (SEQ ID NO. 2), or peptide 3 (SEQ ID NO. 3) alone, peptide 1 (SEQ ID NO. 1), peptide 2 (SEQ ID NO. 2), or peptide 3 (SEQ ID NO. 3) in combination with an anti-PD-1 monoclonal antibody, or with the anti-PD-1 monoclonal antibody alone.
Such combination therapy provided an effect that exceeds the summation of effects provided by anti-PD1 or the cyclic peptide as monotherapies. […] Use of cyclic peptides in combination anti-PD-1 ICI also effectively immunized mice to rechallenge with MC38 colon cancer cells. As shown in the upper panel of FIG. 8, MC38 cells formed tumors in naïve control mice.

Assay [2] has as its system myeloid-derived suppressor cells (MDSCs) in MC38 colon adenocarcinoma tumors. In words: MDSC infiltration into tumor microenvironment, MC38 tumors, FACS. Format: in vivo, C57BL/6 mice. The settings on record: 4 doses cyclic peptide 0.1 mg/kg alone; tumors harvested day 13. As to the method:
C57BL/6 mice were implanted subcutaneously with 5×10^6 MC38 colon adenocarcinoma cells, and subsequently treated with 4 doses of the indicated cyclic peptide (0.1 mg/kg), 4 doses of the indicated a cyclic peptide with 3 doses of an anti-PD-1 monoclonal antibody (1 mg/kg), or saline (control). Tumors were harvested at day 13 and the percent of myeloid-derived suppressor cells (MDSCs) was quantified by FACS.

Take “peptide 3: cyclic peptide, θ-defensin analog, sequence CICRRRFCLCRRGA (not fully specified (bridges); also: cyclic, kind not given here)”: the survival entry in assay [1] is recorded as “potentiated the effect of the anti-PD-1 monoclonal antibody”. The “percentage of MDSCs within the tumor microenvironment” value in assay [2] is given as “significant activity in reducing the percentage of MDSCs”.
